Source: ChEMBL document CHEMBL3044874, “Synthesis and characterization of some heterocyclic schiff bases: potential anticonvulsant agents” (Med Chem Res, 2011)
Active and inactive are the calls of the source. The calls are words filed in the database; no cut-off is given here.

Assays:
Mus musculus [1] = experiment: Anticonvulsant activity in ip dosed Mus musculus Swiss albino (mouse) assessed as protection against maximal electroshock-induced seizure; format: functional
Mus musculus [2] = experiment: Anticonvulsant activity in Mus musculus Swiss albino (mouse) assessed as protection against pentylenetetrazole-induced seizure at 300 mg/kg, ip; format: functional, organism-based; parameters: dose 300 mg/kg
[3] = Neurotoxicity against ip dosed Mus musculus Swiss albino (mouse) by rota rod test; format: toxicity, organism-based; details: in vivo
Mus musculus [4] = experiment: Anticonvulsant activity in ip dosed Mus musculus Swiss albino (mouse) assessed as protection against strychnine-induced seizure at 0.5 hr; format: functional; details: read-out: MED
Mus musculus [5] = experiment: Anticonvulsant activity in ip dosed Mus musculus Swiss albino (mouse) assessed as protection against maximal electroshock-induced seizure at 0.5 hr; format: functional; details: read-out: MED
Mus musculus [6] = experiment: Anticonvulsant activity in ip dosed Mus musculus Swiss albino (mouse) assessed as protection against strychnine-induced seizure at 4 hr; format: functional; details: read-out: MED
Mus musculus [7] = experiment: Anticonvulsant activity in ip dosed Mus musculus Swiss albino (mouse) assessed as protection against strychnine-induced seizure; format: functional
Mus musculus [8] = experiment: Anticonvulsant activity in Mus musculus Swiss albino (mouse) assessed as protection against pentylenetetrazole-induced seizure at 300 mg/kg, ip measured at 4 hr; format: functional, organism-based; parameters: dose 300 mg/kg
Mus musculus [9] = experiment: Anticonvulsant activity in Mus musculus Swiss albino (mouse) assessed as protection against pentylenetetrazole-induced seizure at 300 mg/kg, ip measured at 0.5 hr; format: functional, organism-based; parameters: dose 300 mg/kg
Mus musculus [10] = experiment: Neurotoxicity against ip dosed Mus musculus Swiss albino (mouse) at 4 hr by rota rod test; format: toxicity, organism-based; details: in vivo
Rattus norvegicus [11] = experiment: Anticonvulsant activity in Rattus norvegicus Wistar (rat) assessed as protection against maximal electroshock-induced seizure at 30 mg/kg, po measured at 0.25 hr; format: functional, organism-based; parameters: dose 30 mg/kg
[12] = Protection index, ratio TD50 for neurotoxicity to ED50 for protection against maximal electroshock-induced seizure in Mus musculus Swiss albino (mouse); format: toxicity, organism-based; details: in vivo, read-out: Ratio TD50/ED50
Rattus norvegicus [13] = experiment: Anticonvulsant activity in Rattus norvegicus Wistar (rat) assessed as protection against maximal electroshock-induced seizure at 30 mg/kg, po measured at 0.5 hr; format: functional, organism-based; parameters: dose 30 mg/kg
Mus musculus [14] = experiment: Neurotoxicity against ip dosed Mus musculus Swiss albino (mouse) at 0.5 hr by rota rod test; format: toxicity, organism-based; details: in vivo
Rattus norvegicus [15] = experiment: Anticonvulsant activity in Rattus norvegicus Wistar (rat) assessed as protection against maximal electroshock-induced seizure at 30 mg/kg, po measured at 1 hr; format: functional, organism-based; parameters: dose 30 mg/kg
Rattus norvegicus [16] = experiment: Anticonvulsant activity in Rattus norvegicus Wistar (rat) assessed as protection against maximal electroshock-induced seizure at 30 mg/kg, po measured at 2 hr; format: functional, organism-based; parameters: dose 30 mg/kg
Rattus norvegicus [17] = experiment: Anticonvulsant activity in Rattus norvegicus Wistar (rat) assessed as protection against maximal electroshock-induced seizure at 30 mg/kg, po measured at 4 hr; format: functional, organism-based; parameters: dose 30 mg/kg
Mus musculus [18] = experiment: Anticonvulsant activity in ip dosed Mus musculus Swiss albino (mouse) assessed as protection against maximal electroshock-induced seizure at 4 hr; format: functional; details: read-out: MED
Mus musculus [19] = experiment: Anticonvulsant activity in Mus musculus Swiss albino (mouse) assessed as protection against strychnine-induced seizure at 300 mg/kg, ip; format: functional, organism-based; parameters: dose 300 mg/kg
Mus musculus [20] = experiment: Anticonvulsant activity in Mus musculus Swiss albino (mouse) assessed as protection against maximal electroshock-induced seizure at 300 mg/kg, ip measured at 4 hr; format: functional, organism-based; parameters: dose 300 mg/kg
Mus musculus [21] = experiment: Anticonvulsant activity in Mus musculus Swiss albino (mouse) assessed as protection against maximal electroshock-induced seizure at 300 mg/kg, ip; format: functional, organism-based; parameters: dose 300 mg/kg
Mus musculus [22] = experiment: Anticonvulsant activity in ip dosed Mus musculus Swiss albino (mouse) assessed as protection against pentylenetetrazole-induced seizure at 4 hr; format: functional; details: read-out: MED
Mus musculus [23] = experiment: Anticonvulsant activity in ip dosed Mus musculus Swiss albino (mouse) assessed as protection against pentylenetetrazole-induced seizure; format: functional
Mus musculus [24] = experiment: Anticonvulsant activity in ip dosed Mus musculus Swiss albino (mouse) assessed as protection against pentylenetetrazole-induced seizure at 0.5 hr; format: functional; details: read-out: MED
Mus musculus [25] = experiment: Neurotoxicity against Mus musculus Swiss albino (mouse) at 300 mg/kg, ip measured at 4 hr by rota rod test; format: toxicity, organism-based; parameters: dose 300 mg/kg, route intraperitoneal; details: in vivo
Mus musculus [26] = experiment: Neurotoxicity against Mus musculus Swiss albino (mouse) at 300 mg/kg, ip measured at 0.5 hr by rota rod test; format: toxicity, organism-based; parameters: dose 300 mg/kg, route intraperitoneal; details: in vivo
Mus musculus [27] = experiment: Anticonvulsant activity in Mus musculus Swiss albino (mouse) assessed as protection against strychnine-induced seizure at 300 mg/kg, ip measured at 4 hr; format: functional, organism-based; parameters: dose 300 mg/kg
Mus musculus [28] = experiment: Anticonvulsant activity in Mus musculus Swiss albino (mouse) assessed as protection against maximal electroshock-induced seizure at 300 mg/kg, ip measured at 0.5 hr; format: functional, organism-based; parameters: dose 300 mg/kg
Mus musculus [29] = experiment: Anticonvulsant activity in Mus musculus Swiss albino (mouse) assessed as protection against strychnine-induced seizure at 300 mg/kg, ip measured at 0.5 hr; format: functional, organism-based; parameters: dose 300 mg/kg

Row | Compound | ED50 (Mus musculus [1]) | Activity (Mus musculus [2]) | TD50 [3] | minimal effective dose (Mus musculus [4]) | minimal effective dose (Mus musculus [5]) | minimal effective dose (Mus musculus [6]) | Activity (Rattus norvegicus [11]) | selectivity ratio [12] | Activity (Rattus norvegicus [13]) | Activity (Rattus norvegicus [15]) | Activity (Rattus norvegicus [16]) | Activity (Rattus norvegicus [17]) | minimal effective dose (Mus musculus [18]) | Activity (Mus musculus [19]) | minimal effective dose (Mus musculus [22]) | ED50 (Mus musculus [23]) | minimal effective dose (Mus musculus [24]) | Activity (Mus musculus [25]) | Activity (Mus musculus [26]) | Activity (Mus musculus [27]) | further results
1 | C(=N\Cc1cccnc1)/c1ccccc1 | 53 mg/kg | inactive | 112 mg/kg | 100 mg/kg | 100 mg/kg | 100 mg/kg | inactive | 2.1 | inactive | Active | Active | Active | 30 mg/kg | – | – | – | – | – | – | – | ED50 (Mus musculus [7]): 62.4 mg/kg; Activity (Mus musculus [8]): inactive; Activity (Mus musculus [9]): inactive; MTC (Mus musculus [10]): 100 mg/kg; MTC (Mus musculus [14]): 100 mg/kg
2 | C(=N\Cc1cccnc1)/c1c[nH]c2ccccc12 | – | – | > 500 mg/kg | 300 mg/kg | 300 mg/kg | 100 mg/kg | – | > 10 | – | – | – | – | – | inactive | 30 mg/kg | 6.47 mg/kg | 30 mg/kg | – | – | – | Activity (Mus musculus [20]): inactive; Activity (Mus musculus [21]): inactive; MTC (Mus musculus [10]): 100 mg/kg; MTC (Mus musculus [14]): 100 mg/kg
3 | COc1cc(/C=N/Cc2cccnc2)cc(OC)c1OC | 71.7 mg/kg | inactive | > 500 mg/kg | 100 mg/kg | 100 mg/kg | 30 mg/kg | inactive | > 10 | inactive | inactive | Active | Active | 100 mg/kg | – | – | – | – | Non-toxic | Non-toxic | – | ED50 (Mus musculus [7]): 50.3 mg/kg; Activity (Mus musculus [8]): inactive; Activity (Mus musculus [9]): inactive
4 | OC(/C(=N\Cc1cccnc1)c1ccccc1)c1ccccc1 (stereo not drawn) | 20.8 mg/kg | inactive | 11.9 mg/kg | 100 mg/kg | 30 mg/kg | – | Active | 0.57 | Active | Active | Active | inactive | 30 mg/kg | – | – | – | 300 mg/kg | – | – | inactive | ED50 (Mus musculus [7]): 106 mg/kg; Activity (Mus musculus [8]): inactive; MTC (Mus musculus [10]): 30 mg/kg; MTC (Mus musculus [14]): 30 mg/kg
5 | c1cncc(CN=C2CCCCC2)c1 | – | – | > 500 mg/kg | – | – | – | – | > 10 | – | – | – | – | – | inactive | 30 mg/kg | 14.2 mg/kg | 30 mg/kg | Non-toxic | Non-toxic | inactive | Activity (Mus musculus [28]): inactive; Activity (Mus musculus [20]): inactive; Activity (Mus musculus [29]): inactive; Activity (Mus musculus [21]): inactive
6 | O=[N+]([O-])c1ccc(/C=N/Cc2cccnc2)cc1 | 61.4 mg/kg | inactive | > 500 mg/kg | 30 mg/kg | 100 mg/kg | 100 mg/kg | inactive | > 10 | inactive | inactive | inactive | inactive | 100 mg/kg | – | 300 mg/kg | – | 100 mg/kg | Non-toxic | Non-toxic | – | ED50 (Mus musculus [7]): 22.2 mg/kg
7 | COc1ccc(/C=N/Cc2cccnc2)cc1OC | – | – | > 500 mg/kg | – | 300 mg/kg | – | – | > 10 | – | – | – | – | – | inactive | 30 mg/kg | 11.7 mg/kg | 30 mg/kg | Non-toxic | Non-toxic | inactive | Activity (Mus musculus [20]): inactive; Activity (Mus musculus [29]): inactive; Activity (Mus musculus [21]): inactive
8 | COc1cc(/C=N/Cc2cccnc2)ccc1O | 53 mg/kg | – | 176 mg/kg | 30 mg/kg | 100 mg/kg | 30 mg/kg | inactive | 3.31 | inactive | Active | Active | Active | 30 mg/kg | – | 30 mg/kg | 6.44 mg/kg | 30 mg/kg | Non-toxic | – | – | ED50 (Mus musculus [7]): 14.2 mg/kg; MTC (Mus musculus [14]): 300 mg/kg
9 | C/C(=N\Cc1cccnc1)c1ccccc1 | 55.7 mg/kg | – | > 500 mg/kg | – | 100 mg/kg | – | inactive | > 10 | inactive | Active | Active | Active | 30 mg/kg | inactive | 30 mg/kg | 23.2 mg/kg | 30 mg/kg | Non-toxic | Non-toxic | inactive | Activity (Mus musculus [29]): inactive
10 | CC12CCC(C/C1=N/Cc1cccnc1)C2(C)C (stereo not drawn) | – | – | 176 mg/kg | – | – | – | – | 5.45 | – | – | – | – | – | inactive | 100 mg/kg | 32.2 mg/kg | 30 mg/kg | Non-toxic | – | inactive | Activity (Mus musculus [28]): inactive; Activity (Mus musculus [20]): inactive; Activity (Mus musculus [29]): inactive; Activity (Mus musculus [21]): inactive; MTC (Mus musculus [14]): 300 mg/kg
11 | c1ccc(C(=NCc2cccnc2)c2ccccc2)cc1 | 9.13 mg/kg | inactive | > 500 mg/kg | – | 30 mg/kg | – | Active | > 10 | Active | Active | inactive | Active | 30 mg/kg | inactive | – | – | – | Non-toxic | Non-toxic | inactive | Activity (Mus musculus [29]): inactive; Activity (Mus musculus [8]): inactive; Activity (Mus musculus [9]): inactive
